One assay has as its target isolated 20S proteasome (Homo sapiens, UniProt P28074). Put plainly: Proteasome activity using isolated proteasome (chymotrypsin-like activity, MCA liberation). The arrangement: unit of the concentration uncertain. The note with it: relative to DMSO control (0 (unit uncertain) = 100%), mean of 3 independent tests. Format: biochemical. The text has this:
The method used herein to investigate the proteasome stimulating activity of a substance is based on the measurement of the 20S proteasome core activity. To detect this activity, the isolated 20S proteasome reacts with an oligopeptide, which is bound to a fluorochrome. With its chymotrypsin-like proteolytic activity, the proteasome degrades the oligopeptide and liberates the fluorochrome. For this assay 4-methyl-coumaryl-amide (MCA) was used as fluorochrome. Liberation of MCA correlates linearly with the proteasome activity. MCA was detected using an excitation of 360 nm and an emission of 460 nm.
For interpretation, the measured proteasome activities/intensities of fluorescence were compared with pure MCA standards at distinct concentrations.
Two different controls were used for each assay. One “ordinary” control (C) which consisted of isolated proteasome alone, and a DMSO-control (DC). DC was necessary because all substances were diluted in DMSO. Proteasome activity was calculated relative to DMSO control (0 mM).

Assay [1] deals with proteasome in HaCaT cell lysate. Put plainly: Proteasome activity using cell lysates of HaCaT cells (MCA liberation). It is filed as biochemical, human. The arrangement: unit of the concentration uncertain. The following applies: HaCaT cellular extracts, relative to DMSO control (0 (unit uncertain) = 100%), mean of 3 independent tests. On the procedure:
To determine proteasome activity in cell lysate, human keratinocyte cell lines (HaCaT cells) were seeded out in Petri-dishes (area: 22.1 cm^2) and harvested when they reached confluence. Isolation of the pure cell lysate included cell washing, incubation and homogenization in lysis buffer (250 mM sucrose, 25 mM HEPES (4-(2-hydroxyethyl)-1-piperazineethanesulfonic acid), 10 mM MgCl2*6H2O, 1.3 mM EDTA) and final cell lysis with liquid nitrogen. Determination of proteasome activity is based on the liberation of MCA and the corresponding fluorescence like described above in example 3.1. Proteasome activity was calculated relative to DMSO control (0 mM).

Another assay has as its system yeast. The following applies: cited from earlier work.
A further assay has as its system fish. The note with it: cited from earlier work.

These results are taken from patent US20110294876A1, “CYCLOHEXYL CARBAMATE COMPOUNDS AS ANTI-AGEING ACTIVES” (SYMRISE AG, priority 2010, published 2011).

Each structure is given as a SMILES string.

For `CC(C)NC(=O)O[C@@H]1C[C@H](C)CC[C@H]1C(C)C` [BIO1272, Isopropyl-carbamic acid (1R,2S,5R)-2-isopropyl-5-methylcyclohexyl ester], the Relative proteasome activity amounted to 125% at isolated 20S proteasome (5 (unit uncertain)); 210% on isolated 20S proteasome (10 (unit uncertain)); 250% on isolated 20S proteasome (20 (unit uncertain)); 105% in assay [1] (5 (unit uncertain)); 120% in assay [1] (10 (unit uncertain)); 140% in assay [1] (20 (unit uncertain)).
As to `Oc1ccc(C=Cc2cc(O)cc(O)c2)cc1` [Resveratrol], the Extension of lifespan with yeast is recorded as 70%; with fish, 60%.
